The values below come from publication PMC9650263, “Synthesis and appraisal of dalbergin-loaded PLGA nanoparticles modified with galactose against hepatocellular carcinoma: In-vitro, pharmacokinetic, and in-silico studies” (Frontiers in Pharmacology, 2022).

The nature of series [1]: In vitro drug release study. It counts as physicochemical. The conditions noted are these: up to 48 h, 37°C; media pH 1.2 and 7.4 described, medium of the values not stated. The protocol:
At pH values of 1.2 and 7.4, the drug release perspectives of DLF and DLMF were studied in both simulated gastric and simulated intestinal fluids. A flask was placed in an incubator with a water bath continually swirling (100 rev/min) and kept at a temperature of 37°C. The flask was filled with 10 ml of the appropriate medium and weighed amounts of DLF and DLMF that were sufficient for 10 mg of DL. The dissolving solution in the flask was then routinely replaced with new media at regular intervals, after which 2 ml of the sample was collected for DL detection. The samples were analyzed at 254 nm using a UV-Vis Spectrometer (Labtronics-2910, India), which was utilized to quantify the DL release. Triplicate dissolution tests were carried out. The data was analyzed to determine release kinetics ([Song, X., et al., 2018]; [Kanoujia, J., et al., 2021]; [Song, X., et al., 2019]; [Kumar, P., et al., 2018]).

The nature of series [2]: Oral pharmacokinetic study, HPLC quantification in plasma. It counts as in vivo, albino Wistar rats. Particulars: rat plasma, DL equivalent 100 mg/kg. The protocol:
DL, DLF, and DLMF were administered orally to albino Wistar rats at a dose of DL equivalent to 100 mg/kg (Approval No: IU/IAEC/20/01), and after the first treatment, the blood samples were collected through retro-orbital plexus of the animals at 0.083, 0.25, 0.5, 1, 2, 4, 8, 12, 16, 24, and 48 h. The serum was isolated from the blood by centrifugation for 10 min at 10,000 rpm. The serum samples were kept at -20 °C until quantification by HPLC analysis.
A precise and accurate bioanalytical approach was devised for drug quantification in plasma samples. ACN was used to make 1 mg/ml stock solution of DL, and stock solution in ACN was used to make working standard solutions of 0.02, 0.1, 0.2, 0.5, 1, 2, 5, 10, 50, and 100 μg/ml. Overall, separate tubes containing 100 […] and 100 […] were vortexed for 30 min. The tubes were then spun at 13,000 rpm for 5 min. The supernatant was collected, transferred to fresh tubes, and allowed to dry overnight at a temperature of 40°C. After that, the tubes were reconstituted with 100 μL of ACN, vortexed for 5 minutes, and 20 μL of supernatant was injected into HPLC to quantify DL. The working solution concentrations were 0.01, 0.05, 0.1, 0.25, 0.5, 1, 2.5, 5.0, 25.0, and 50.0 μg/ml. Low-quality control (LQC), medium quality control (MQC), and high-quality control (HQC) samples were created with different quantities of 0.005, 0.5, and 40 μg/ml, respectively. It was necessary to create quality control samples and triplicate calibrations for each concentration. A test tube containing 100 μL of test plasma and 100 μL of ACN was vortexed for 30 min to create the test samples. To assess the final outcomes, WinNonlin version 1.5.3 was used ([Nisha et al., 2020a]; [Kumar, P., et al., 2018]; [Nisha et al., 2020b]).

The subject of the next series is HepG2 cell line. Briefly: SRB growth inhibition assay, anticancer efficacy. It counts as cell-based. Particulars: Homo sapiens, HepG2, 48 h, 10-80 μg/ml, read-out: GI50 (growth inhibitory concentration). The protocol:
National Cell Repository of NCCS (Pune, India) provided the HepG2 cell line, which was then grown in our cell culture lab for further in vitro assays. The liver cancer cell lines were grown in a T-75 flask for 24 h at 37°C, 5% CO2, and absolute humidity equal to 100% in the Roswell Park Memorial Institute (RPMI)-1640 media with 10% fetal bovine serum and 2 mM L-glutamine. The cells were collected by centrifugation and incubated at a density of 5×10^3 cells/well onto 96 well plates to measure the growth. The test samples were distributed in dimethyl sulfoxide at 100 mg/ml concentration, diluted to 1 mg/ml equivalent drug concentration in distilled H2O. […] After removing the attached dye with 10 mM Trizma base, absorbance was measured at 540 nm using a 690 nm reference. The findings were acquired in triplicate on different plates, and the mean of the three trials was determined. The % cell growth was measured using absorbance data (time zero [Tz], control growth (C), and test growth in the presence of drug at different concentrations [Ti]. The % growth inhibition was calculated using the following formula Ti−Tz/C−Tz×100 for concentrations for which Ti≥Tz […]
It was shown that the quantity of protein formation was reduced by 50% at a medication concentration of […]. […]

In brackets after ≈: the same amount, converted by molar mass.

In general, AUC(0-inf) refers to the area under the concentration-time curve extrapolated to infinity. As usually defined, the Cmax is the highest concentration seen after dosing. A word on the MRT: it is a mean duration of stay, worked out from the concentration-time curve. As a reminder, the Tmax is the time from dosing to the highest level. What is called half-life is the time in which the quantity being followed falls by half. Turning to `COc1cc2oc(=O)cc(-c3ccccc3)c2cc1O` [DL, 6-hydroxy-7-methoxy-4-phenyl-2H-cromen-2-one], in series [1], the “cumulative discharge (in vitro release)” value is “around 40.97 ± 3.01%”. For the same molecule, in series [2] (albino Wistar), the AUC(0-inf) is 244 ± 10.3 µg·h/mL, the maximum concentration (Cmax) came to 23100 ± 840 ng/mL, the MRT was determined as 11.5 ± 1.01 h and the time of peak concentration (Tmax) came out at 4 h. Moreover, the half-life in series [2] (albino Wistar) is 9.63 h. Further, the AUMC in series [2] came to 2806.95 µg.h^2/ml. For the same molecule, the GI50 in the series on HepG2 cell line came to 20 µg/mL (≈ 74.6 µM).
